Source: patent US20230346912A1 (priority 2022, published 2023)

Tested on: spleen lymphocytes of B2 haplotype chickens infected with H9N2 AIV
Type: cell-based, chicken

| Sequence | immunogenicity of individual peptide (IFN-γ ELISpot) |
| --- | --- |
| AVKGIGTMV [Polypeptide P10] | considered immunogenic |
| DVSFQGRGV [Polypeptide P11] | considered immunogenic |
| MSRDWLMLI [Polypeptide P373] | considered immunogenic |
| WIIRNWETV [Polypeptide P257] | considered immunogenic |
